Laboratory results taken from patent publication US20100010053A1, “COMPOUNDS” (priority 2008, published 2010).

What was measured:
[1] = clinical studies, first 24 hours of treatment; cited from earlier work
circulating lymphocytes = settings: animals and man; cited from earlier work
[2] = target: T1, human S1P1 receptor (EDG1) (Homo sapiens, UniProt P21453); test: S1P1 GTPγS assay or S1P1 Tango assay (at least one of the above assays); type: cell-based; settings: read-out: pEC50 in at least one of the above assays (converted)
T1 construct: TEV protease site + Gal4-VP16 transcription factor (only in the Tango assay cells; not described for the GTPγS membranes); expressed in transfected cells; host or cells: rat hepatoma cells (membranes, GTPγS assay) or Tango EDG1-bla U2OS cells (Tango assay)
T1 sequence (P21453 whole entry, the tested form may be a part): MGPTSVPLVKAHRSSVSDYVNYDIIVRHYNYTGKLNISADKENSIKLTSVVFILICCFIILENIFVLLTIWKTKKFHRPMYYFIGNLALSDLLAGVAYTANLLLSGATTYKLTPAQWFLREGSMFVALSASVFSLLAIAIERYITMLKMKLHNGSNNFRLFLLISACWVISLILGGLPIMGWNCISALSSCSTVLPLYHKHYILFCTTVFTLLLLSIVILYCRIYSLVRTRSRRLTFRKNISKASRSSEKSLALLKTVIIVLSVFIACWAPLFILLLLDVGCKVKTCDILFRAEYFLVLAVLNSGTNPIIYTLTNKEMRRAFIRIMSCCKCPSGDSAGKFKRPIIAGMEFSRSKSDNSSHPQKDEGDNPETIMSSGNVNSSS
Method: For membrane preparations all steps were performed at 4° C. Rat hepatoma cells stably expressing the human S1P1 receptor or Rat Basophilic Leukaemia cells (RBL) stably expressing human S1P3 receptor were grown to 80% confluency before being harvested into 10 ml Phospho-Buffered Saline (PBS) and centrifuged at 1200 rpm for 5 minutes. After removal of the supernatant, the pellet was re-suspended and cells were homogenised within a glass Waring blender for 2 bursts of 15 secs in 200 mls of buffer (50 mM HEPES, 1 mM leupeptin, 25 μg/ml bacitracin, 1 mM EDTA, 1 mM PMSF, 2 μM pepstatin A). The blender was plunged into ice for 5 mins after the first burst and 10-40 mins after the final burst to allow foam to dissipate. The material was then spun at 500 g for 20 mins and the supernatant spun for 36 mins at 48,000 g. The pellet was resuspended in the same buffer as above but without PMSF and pepstatin A. The material was then forced through a 0.6 mm needle, made up to the required volume, (usually ×4 the volume of the original cell pellet), aliquoted and stored frozen at −80° C. S1P1 GTPγS assay Human S1P1 rat hepatoma membranes (1.5 μg/well) were adhered to a wheatgerm agglutinin (WGA)-coated scintillation proximity assay (SPA) beads (0.125 mg/well) in assay buffer (HEPES 20 mM, MgCl2 10 mM, NaCl 100 mM and pH adjusted to 7.4 using KOH 5M, GDP 10 μM FAC (final assay concentration) and saponin 90 μg/ml FAC was also added).
(§1) After 30 minutes pre-coupling on ice the bead and membrane suspension was dispensed into a white Greiner polypropylene LV384-well plate (5 μl/well), containing 0.1 μl of the compound. 5 μl/well [^35S]-GTPγS (0.5 nM final radioligand conc) made up in assay buffer was then added to agonist plates. The final assay cocktail (10.1 μl) was then centrifuged at 1000 rpm for 5 minutes then read immediately on a Viewlux reader.
(§2) All test compounds were dissolved in DMSO at a concentration of 10 mM and were prepared in 100% DMSO using a 1 in 4 dilution step to provide 11 point dose response curves. The dilutions were transferred to the assay plates ensuring that the DMSO concentration was constant across the plate for all assays.
All data was normalized to the mean of 16 high and 16 low control wells on each plate. A four parameter curve fit was then applied.
Recombinant EDG1-bla/U2OS cells (contain the human Endothelial Differentiation Gene 1 (EDG1) linked to a TEV protease site and a Gal4-VP16 transcription factor stably integrated into the Tango GPCR-bla U2OS parental cell line) were suspended in assay medium (Invitrogen Freestyle Expression Medium) at a density of 312, 500 cells/ml. Add 100 μl/well of the assay medium to the cell-free control wells (column 12) and 100 μl/well of the cell suspension to the test compound wells (row 2-8, column 1-10), the unstimulated control wells (DMSO) (column 11), and stimulated control wells (S1P) (row 1, column 1-10) in a Corning black-well, clear bottom 96-well plate. Cells were incubated at 37° C., 5% CO2 for 44-48 h. Add 25 μl of 5× stock solution of test compounds in assay medium with 0.5% DMSO to the test compound wells, 25 μl of 5× stock solution of agonist (S1P) in assay medium with 0.5% DMSO to the stimulated compound wells, and 25 μl of 5× stock solution of 0.5% DMSO in assay medium to the unstimulated control and cell-free control wells.
(§3) After incubation at 37° C., 5% CO2 for 5 h, 25 μl of 6× substrate mixture (6 μl Solution A (1 mg LiveBLAzer™-FRET B/G substrate (CCF4-AM) in 912 μl DMSO) plus 60 μl Solution B plus 934 μl Solution C) was added to each well and incubate at room temperature for 2 h in dark. The plate was finally read on EnVision for two emission channels (460 nm and 530 nm).
All test compounds were dissolved in DMSO at a concentration of 10 mM and were prepared in 100% DMSO using a 1 in 5 dilution step to provide 10 point dose response curves. […]

[3] = target: T2, human S1P3 receptor (EDG3) (Homo sapiens, UniProt Q99500); test: S1P3 GTPγS assay or S1P3 GeneBlazer assay (at least one of the above assays); type: cell-based; settings: given as EC50
T2 construct: expressed in transfected cells; host or cells: rat basophilic leukaemia cells RBL-2H3 (membranes, GTPγS assay) or GeneBLAzer EDG3-Ga15-NFAT-bla HEK 293T cells
T2 sequence (Q99500 whole entry): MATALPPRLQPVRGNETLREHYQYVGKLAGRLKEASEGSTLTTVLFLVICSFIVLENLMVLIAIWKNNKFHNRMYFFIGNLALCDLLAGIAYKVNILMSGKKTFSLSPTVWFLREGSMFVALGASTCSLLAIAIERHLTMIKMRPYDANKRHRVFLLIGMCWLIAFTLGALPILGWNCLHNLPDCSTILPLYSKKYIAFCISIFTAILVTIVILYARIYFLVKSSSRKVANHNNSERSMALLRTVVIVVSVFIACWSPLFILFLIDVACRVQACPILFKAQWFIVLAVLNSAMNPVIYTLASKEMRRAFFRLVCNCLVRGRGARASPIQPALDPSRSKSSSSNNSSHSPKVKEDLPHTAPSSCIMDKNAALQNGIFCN
Method: S1P3 membranes from rat basophilic leukaemia cells (RBL-2H3) (1.5 μg/well) were adhered to WGA-coated SPA beads (0.125 mg/well) in assay buffer (HEPES 20 mM, MgCl2 3 mM, NaCl 100 mM and pH adjusted to 7.4 using KOH 5M), GDP 10 μM FAC and saponin 90 μg/ml FAC was also added).
as §1, with “μl) was centrifuged at” for “μl) was then centrifuged at”
as §2, with “assays. […]” for “assays.”
as §3, with “B/G Substrate” for “B/G substrate”, “nm). […]” for “nm).”

Compound	EC50 [2] [µM]	other results
CCCCCCCCc1ccc(CCC(N)(CO)CO)cc1 [FTY720]		bradycardia [1]: results in bradycardia; effect on circulating lymphocytes (circulating lymphocytes): reduce circulating lymphocytes
CC(C)Oc1ncc(-c2nc(-c3cc(F)cc4c(CCC(=O)O)cn(C)c34)no2)cc1Cl [Example 102, 3-[7-(5-{5-Chloro-6-[(1-methylethyl)oxy]-3-pyridinyl}-1,2,4-oxadiazol-3-yl)-5-fluoro-1-methyl-1H-indol-3-yl]propanoic acid]	< 0.001	
CC(C)Oc1ccc(-c2nc(-c3ccc(F)c4c(CCC(=O)O)cn(C)c34)no2)cc1Cl [Example 20, 3-[7-(5-{3-Chloro-4-[(1-methylethyl)oxy]phenyl}-1,2,4-oxadiazol-3-yl)-4-fluoro-1-methyl-1H-indol-3-yl]propanoic acid]	< 0.01	
CC(C)Oc1ccc(-c2nc(-c3cc4[nH]cc(CCC(=O)O)c4cc3F)no2)cc1C#N [Example 110, 3-[6-(5-{3-Cyano-4-[(1-methylethyl)oxy]phenyl}-1,2,4-oxadiazol-3-yl)-5-fluoro-1H-indol-3-yl]propanoic acid]	< 0.001	
CC(C)Oc1ncc(-c2nc(-c3ccc4c(CN5CCC(C(=O)O)CC5)c[nH]c4c3)no2)cc1Cl [Example 78, 1-{[6-(5-{5-chloro-6-[(1-methylethyl)oxy]-3-pyridinyl}-1,2,4-oxadiazol-3-yl)-1H-indol-3-yl]methyl}-4-piperidinecarboxylic acid]	≥ 1	
CCCCn1cc(CCC(=O)O)c2cccc(-c3noc(-c4ccc(OC(C)C)c(Cl)c4)n3)c21 [Example 29, 3-[1-butyl-7-(5-{3-chloro-4-[(1-methylethyl)oxy]phenyl}-1,2,4-oxadiazol-3-yl)-1H-indol-3-yl]propanoic acid]	≥ 1	
CC(C)Oc1ccc(-c2nc(-c3cccc4c(CNCC(=O)O)c[nH]c34)no2)cc1Cl [Example 47, N-{[7-(5-{3-chloro-4-[(1-methylethyl)oxy]phenyl}-1,2,4-oxadiazol-3-yl)-1H-indol-3-yl]methyl}glycine]	< 0.001	
CC(C)Oc1ccc(-c2nc(-c3cccc4c(CCOCC(=O)O)cn(C)c34)no2)cc1Cl [Example 79, ({2-[7-(5-{3-chloro-4-[(1-methylethyl)oxy]phenyl}-1,2,4-oxadiazol-3-yl)-1-methyl-1H-indol-3-yl]ethyl}oxy)acetic acid]	< 0.01	
CC(C)Oc1ccc(-c2nc(-c3cccc4c(CCNC5(C(=O)O)CC5)cn(C)c34)no2)cc1Cl [Example 68, 1-({2-[7-(5-{3-chloro-4-[(1-methylethyl)oxy]phenyl}-1,2,4-oxadiazol-3-yl)-1-methyl-1H-indol-3-yl]ethyl}amino)cyclopropanecarboxylic acid]	< 0.01	
CC(C)Oc1ccc(-c2nc(-c3c(F)ccc4c(CCC(=O)O)cn(C)c34)no2)cc1Cl [Example 104, 3-[7-(5-{3-Chloro-4-[(1-methylethyl)oxy]phenyl}-1,2,4-oxadiazol-3-yl)-6-fluoro-1-methyl-1H-indol-3-yl]propanoic acid]	< 0.01	
CC(C)Oc1ccc(-c2nc(-c3cccc4c(C(=O)NCCCC(=O)O)c[nH]c34)no2)cc1Cl [Example 74, 4-({[7-(5-{3-chloro-4-[(1-methylethyl)oxy]phenyl}-1,2,4-oxadiazol-3-yl)-1H-indol-3-yl]carbonyl}amino)butanoic acid]	< 0.001	
CC(C)Oc1ccc(-c2nc(-c3cc4[nH]cc(CCC(=O)O)c4cc3F)no2)cc1Cl [Example 109, 3-[6-(5-{3-Chloro-4-[(1-methylethyl)oxy]phenyl}-1,2,4-oxadiazol-3-yl)-5-fluoro-1H-indol-3-yl]propanoic acid]	< 0.001	
CC(C)Oc1ccc(-c2nc(-c3cccc4c([C@H]5C[C@H]5C(=O)O)cn(C)c34)no2)cc1Cl (relative stereo) [Example 40, cis-2-[7-(5-{3-chloro-4-[(1-methylethyl)oxy]phenyl}-1,2,4-oxadiazol-3-yl)-1-methyl-1H-indol-3-yl]cyclopropanecarboxylic acid]		EC50 [3]: 0.316 µM
CC(C)Oc1ccc(-c2nc(-c3cccc4c(CCN5CC(C(=O)O)C5)cn(C)c34)no2)cc1Cl [Example 67, 1-{2-[7-(5-{3-chloro-4-[(1-methylethyl)oxy]phenyl}-1,2,4-oxadiazol-3-yl)-1-methyl-1H-indol-3-yl]ethyl}-3-azetidinecarboxylic acid]	< 0.01	
